Among the data in US5233062A, “Antibiotic eicosenoic acids” (Merck & Co., Inc., priority 1992, dated 1993) are antifungal activity values, retold here.

What all share (assay): antifungal disc diffusion assay
Holding throughout (format): cell-based

One assay relates to Candida albicans. On the procedure:
(§1) The antifungal activity of the compounds may be detected in an antifungal assay employing disc diffusion methods against a panel of representative yeasts, filamentous fungi (molds) and bacteria.
(§2) For carrying out the assay, seeded assay plates are prepared in the following manner according to the type of assay strain.
(§3) Inocula for yeasts and Streptomyces strains are prepared from overnight broth cultures then diluted into potato dextrose […] to a final concentration of either 40 percent or 70 percent transmission at 660 nm.
(§4) For strains of Candida albicans and Saccharomyces cerevisiae, sterile saline is employed in place of potato dextrose broth. Assay plates are prepared by diluting the inoculum into appropriate molten agar medium, cooled to 45° C. to obtain a final concentration of 4 percent.
(§5) The seeded agar media thus prepared are dispensed into Petri dishes for assays (11 milliliters per dish).
(§6) The samples to be tested for production of antifungal agent are applied to 6.2 mm. filter paper discs (25 microliter/disc) and air dried at 24° C. When the sample to be tested is crude broth, it may be centrifuged prior to application. The discs bearing the material to be tested are then applied employing sterile conditions to be seeded assay plates and the sample rewet with 25 percent sterile aqueous dimethysulfoxide (25 μl/disc). The assay plates are then incubated at either 28° C. or 37° C. for 24 hours.
(§7) Following incubation, the inhibition zones are measured and recorded. The measurements are made from the extreme edge where growth differs from the background zone. The zones are noted as to appearance as fuzzy edge and clear center, hazy throughout, slightly hazy, very hazy or ringed.

The subject of another assay is Candida neoformans. On the procedure: as §1, §2, §3, §5, §6, §7
The next assay deals with Candida parapsilosis. On the procedure:
as §1, §2, §3, §5, §6, §7

The subject of another assay is Candida pseudotropicalis. On the procedure: as §1, §2, §3, §5, §6, §7
The test system of a further assay is Alternaria solani. To be noted: filamentous fungus Alternaria solani. On the procedure: as §1, §2
(§8) Inocula for filamentous fungi are prepared by scraping the surface of stock plates maintained on potato dextrose agar with a moistened sterile dacron swab. The spores and mycelia are then suspended in 10 milliliters of sterile potato dextrose broth and adjusted to 70 percent transmission at 660 nm.
as §5, §6
(§9) Following incubation, the inhibition zones are measured and recorded. The measurements are made from the extreme edge where growth differs from the background zone. […]

A further assay relates to Ceratocystis ulmi. The following applies: filamentous fungus Ceratocystis ulmi. On the procedure: as §1, §2, §8, §5, §6, §9
A further assay relates to Saccharomyces cerevisiae. The method, then:
as §1, §2, §3, §4, §5, §6, §7

The subject of the next assay is Cryptococous neoformans. On the procedure: as §1, §2, §3, §5, §6, §7

On to `CCCCCCC(=O)CCCCCC/C=C/C(O)C(O)C(O)C(N)(CO)C(=O)O` (stereo not drawn) [Compound IA], for which the antifungal activity result in the assay on Candida albicans is reported as “active”; in the assay with Candida neoformans, “active”; in the assay on Candida parapsilosis, “active”; in the assay on Candida pseudotropicalis it was “active”; in the assay on Alternaria solani, “very strong antifungal activity”; in the assay on Ceratocystis ulmi, “very strong antifungal activity”.
As to `CCCCCCC(=O)CCCCCC/C=C/C(O)C(O)C(O)C(C)(N)C(=O)O` (stereo not drawn) [Compound IB], the antifungal activity result in the assay with Candida albicans, in the assay with Saccharomyces cerevisiae and with Cryptococous neoformans was “active” each time.
